Experimental data: patent US20030109675A1 (priority 2001, published 2003)
Where “and” joins values, the source holds several entries; their conditions need not be identical. Identical values can stand only once.

What was measured:
[1] = target: DegP protease (Escherichia coli, UniProt P0C0V0); details: for effect of divalent cation on DegP cleavage of PapA-6H4A-rcm: 5 mM
[2] = target: T1, DegP (Escherichia coli, UniProt P0C0V0); details: cited from earlier work
[3] = target: T1, DegP; details: for cleavage of fluorescence-quench peptide by DegP: 8 μM (SPCJ-12) or 10 μM peptide, 25 mM HEPES, 5 mM CaCl2, 45° C.
[4] = target: T1, DegP; details: scaled-up (5 ml) cleavage reaction, MALDI-TOF MS of products
[5] = target: T1, DegP; details: 7-mer and 12-mer Abz-tagged cellulose-bound peptides, 0.28 mg/ml DegP, 5 mM MgCl2, up to 28 hours
[6] = target: SPCJ-14 - Abz-[…]-DAP(Dnp)-NH2

[Ca+2].[Cl-].[Cl-] [CaCl2, reference compound]
effect of divalent cation on DegP cleavage of PapA-6H4A-rcm [1]: stimulated DegP cleavage

[Cl-].[Cl-].[Mg+2] [MgCl2, reference compound]
input PapA-6H4A-rcm cleaved by DegP in presence of divalent cation ([1]; 5 mM cation, 20 μg DegP, 20 μg substrate, 4 hours at 45° C.): ~50%

[Cl][Mn][Cl] [MnCl2, reference compound]
effect of divalent cation on DegP cleavage of PapA-6H4A-rcm [1]: stimulated DegP cleavage

O=S(=O)(F)Cc1ccccc1 [phenylmethylsulfonylfluoride]
inhibition of DegP activity [2]: not inhibited

Abz-HYTASSK-DAP(Dnp)-NH2 [SPCJ-14]
cleavage of fluorescence-quench peptide by DegP ([3]; 5 μg DegP): lack of cleavage
inhibition of DegP cleavage of SPCJ-13 ([3]; 10-fold molar excess (100 μM vs 10 μM SPCJ-13), 30 minutes pre-incubation with 5 μg DegP, then 60 minutes): blocked cleavage of SPCJ-13

Abz-HYTAVVK-DAP(Dnp)-NH2 [SPCJ-13]
cleavage of fluorescence-quench peptide by DegP ([3]; 5 μg DegP): cleaved SPCJ-13 in a time-dependent fashion
DegP cleavage site in substrate peptide [4]: cleavage between the paired valine residues

Abz-HYTAVVKKSSAV-DAP(Dnp)-NH2 [SPCJ-12]
cleavage of fluorescence-quench peptide by DegP ([3]; 5 μg DegP): cleaved SPCJ-12 in a time-dependent fashion
DegP cleavage site in substrate peptide [4]: cleaved between the paired valine residues

DGENVLH
cleavage of PapA library peptide by DegP in solid-phase scan [5]: cleaved by DegP

ELVNCDI
cleavage of PapA library peptide by DegP in solid-phase scan [5]: cleaved by DegP

FTGPIVNGHSDE
cleavage of PapA library peptide by DegP in solid-phase scan [5]: cleaved by DegP

HYTAVVK
cleavage of PapA library peptide by DegP in solid-phase scan [5]: cleaved by DegP

HYTAVVKKSSAV
cleavage of PapA library peptide by DegP in solid-phase scan [5]: cleaved by DegP

KLAFTGPIVNGH
cleavage of PapA library peptide by DegP in solid-phase scan [5]: cleaved by DegP

KSMCMKLSFS [SPCJ-1]
PapA-6H4A-rcm cleaved by DegP in presence of activating peptide, 60 minutes ([1]; 200 μM peptide, 5 μg DegP, 40 μg substrate, 5 mM MgCl2, 45° C., 60 minutes): 50% and > 50%
PapA-6H4A-rcm cleaved by DegP in presence of activating peptide, four hours ([1]; 200 μM peptide, 5 μg DegP, 40 μg substrate, 5 mM MgCl2, 45° C., four hours): ~90%
effect of peptide on DegP cleavage of SPCJ-13 ([3]; 200 μM peptide added at onset of incubation, 5 μg DegP): enhanced cleavage of SPCJ-13

LDIELVNCDITA
cleavage of PapA library peptide by DegP in solid-phase scan [5]: cleaved by DegP

NGHSDEL
cleavage of PapA library peptide by DegP in solid-phase scan [5]: cleaved by DegP

NVLHYTA
cleavage of PapA library peptide by DegP in solid-phase scan [5]: cleaved by DegP

TLKDGENVLHYT
cleavage of PapA library peptide by DegP in solid-phase scan [5]: cleaved by DegP

B1: DegP protease (protein)
chain: AETSSATTAQQMPSLAPMLEKVMPSVVSINVEGSTTVNTPRMPRNFQQFFGDDSPFCQEGSPFQSSPFCQGGQGGNGGGQQQKFMALGSGVIIDADKGYVVTNNHVVDNATVIKVQLSDGRKFDAKMVGKDPRSDIALIQIQNPKNLTAIKMADSDALRVGDYTVAIGNPFGLGETVTSGIVSALGRSGLNAENYENFIQTDAAINRGNSGGALVNLNGELIGINTAILAPDGGNIGIGFAIPSNMVKNLTSQMVEYGQVKRGELGIMGTELNSELAKAMKVDAQRGAFVSQVLPNSSAAKAGIKAGDVITSLNGKPISSFAALRAQVGTMPVGSKLTLGLLRDGKQVNVNLELQQSSQNQVDSSSIFNGIEGAEMSNKGKDQGVVVNNVKTGTPAAQIGLKKGDVIIGANQQAVKNIAELRKVLDSKPSVLALNIQRGDSTIYLLMQ
cleavage in the fluorescent-quench peptide assay [6]: SPCJ-14 was not cleaved
